Experimental data as given in patent US20070065805A1, “Cell migration assay” (GE Healthcare Bio-Sciences Corp., priority 2005, published 2007).
“Also recorded” adds a separate entry of the source.

Legend:
PBMC TEM = assay: PBMC transendothelial migration (TEM) assay, 96-well collagen gel/HUVEC monolayer; assay type: cell-based, human; settings: HUVEC incubated overnight with 10 ng/ml IL-1 β
Method: (§1) A 96-well plate (ViewPlate™, PerkinElmer Life and Analytical Sciences) was set on ice and 40 μl of gel (2.5 mg/ml) was dispensed into each well using stepper repeat pipette (500 or 1000 tip). The plate was spun at 1,500 rpm for 2 min at 4° C. The gel was solidified at 37° C. in a CO2-free incubator to establish a thick layer (200 μm) of collagen gel onto a well of 96-well plate. The following TEM assays were performed using collagen gel prepared in this manner.
The layer of collagen gel in each well was coated with 200 μl of 1 μg/ml human fibronectin (BD Biosciences) in serum-free EGM-2 medium for 1 hour at room temperature. After removal of the fibronectin containing-medium, HUVEC cells (CAMBREX) were seeded onto the gel and cultured in the EGM-2 medium for 3 days, at 37° C., and at a concentration of 40,000 cells/well. The cells were chosen from early passage (3rd to 4th), 70-80% confluent HUVEC cell cultures. […]
After the required incubation time, images of neutrophil/PBMC cells which had migrated below the HUVEC layer were acquired. Often, it is sufficient to acquire images at a single Z position and quantify the number of migrated cells in the gel at targeted Z position. As an example, images at the 120 μm Z plane were quantified using the Z-slicing feature of IN Cell Analyzer 3000 (GE Healthcare). Images were analysed using the Object Intensity analysis module. […]

neutrophil TEM = assay: Neutrophil transendothelial migration (TEM) assay, 96-well collagen gel/HUVEC monolayer; assay type: cell-based, human; settings: for Inhibition of neutrophil TEM: neutrophil pre-treated with inhibitor (1, 10-phenathronoline 12-1000 μM) for 0.5 hour, inhibitor present throughout the TEM assay, migrated cells counted at Z: 60 μm (FIG. 10)
Method: as §1
The layer of collagen gel in each well was coated with 200 μl of 1 μg/ml human fibronectin (BD Biosciences) in serum-free EGM-2 medium for 1 hour at room temperature. After removal of the fibronectin containing-medium, HUVEC cells (CAMBREX) were seeded onto the gel and cultured in the EGM-2 medium for 3 days, at 37° C., and at a concentration of 40,000 cells/well. The cells were chosen from early passage (3rd to 4th), 70-80% confluent HUVEC cell cultures. The day before the assay, the HUVEC culture medium was replaced with either fresh EGM-2 medium alone, or the fresh EGM-2 medium containing 10 ng/ml IL-1 β (or TNF-α, or other chemoattractants). The mixture was incubated overnight to stimulate TEM.
Neutrophil or peripheral blood mononuclear cells (PBMC) were freshly isolated from blood Buffy coat. Briefly, RBC were removed using dextran sedimentation. Then PBMC were isolated by Ficoll-Hypaque centrifugation. Neutrophils were purified by hypotonic lysis of remaining RBC in the pellet of Ficoll-Hypaque centrifugation. The cells were labelled with CellTracker™ Green, by incubation in 0.5 to 1 μm dye in RPMI for 45 min at 37° C. The dye containing RPMI was removed and the cells washed once with serum-free RPMI medium. The cells were re-suspended in RPMI containing 0.2% HAS (assay medium) at 2.5×10^6 cells/ml.
On the assay day, the culture medium for the HUVEC cell culture was removed and the HUVEC monolayer washed 2 times with PBS and once with assay medium (0.2% of HAS in RPMI). 500,000 (200 μl) neutrophil or PBMC, which were CellTracker™ Green labelled, were placed on top of the HUVEC monolayer in each well. The assay was incubated further at 37° C. The length of time for the incubation is primary cell type dependent. For neutrophil, incubation time is within 2 hours and for PBMC, from 6 to 10 hours may be required.
After the required incubation time, images of neutrophil/PBMC cells which had migrated below the HUVEC layer were acquired. Often, it is sufficient to acquire images at a single Z position and quantify the number of migrated cells in the gel at targeted Z position. As an example, images at the 120 μm Z plane were quantified using the Z-slicing feature of IN Cell Analyzer 3000 (GE Healthcare). Images were analysed using the Object Intensity analysis module. The experiments were repeated multiple times, such that each data point—in the Figures—represents mean plus/minus standard deviation of 6 replicate wells, one Z plane of image/well.
Prior to the TEM assay, neutrophil were pre-treated with 1, 10-phenathronoline, a MMP-9 inhibitor (12-1000 μM) for 0.5 hour. The inhibitor was continuously present throughout the TEM assay. […] Each data point in FIG. 10 represents mean plus/minus SD of 6 replicate wells, one image/well at Z: 60 μm.

Molecule: Interleukin-1-beta [IL-1β]
- Stimulation of PBMC TEM (PBMC TEM): potentiate transendothelial migration of both cell types
- Stimulation of neutrophil TEM (neutrophil TEM; HUVEC incubated overnight with 10 ng/ml IL-1 β): potentiate transendothelial migration of both cell types
- Time for neutrophil TEM to reach a significant signal to noise ratio (IL-1β stimulated vs. non-stimulated) (neutrophil TEM; migrated cells quantified at Z: 120 μm, FIG. 7): 0.5 to 2 h

Molecule: c1cnc2c(c1)ccc1cccnc12 [1, 10-phenathronoline, reference compound]
- Inhibition of neutrophil TEM (neutrophil TEM): inhibits neutrophil TEM; also recorded: Inhibition of neutrophil TEM

Molecule: C[C@H]1c2cccc(O)c2C(O)=C2C(=O)[C@]3(O)C(O)=C(C(N)=O)C(=O)[C@@H](N(C)C)[C@@H]3[C@@H](O)[C@@H]21 [doxycyclin, reference compound]
- Inhibition of neutrophil TEM (neutrophil TEM): showed to inhibit TEM

Molecule: Interleukin-8 [IL-8]
- Effect of IL-8 soaking on neutrophil TEM (neutrophil TEM; collagen gel pre-soaked with culture medium containing IL-8 at 200 ng/ml for 4 hours): increase of neutrophil TEM; also recorded: generates a TEM effect similar to that of IL-1 β activation of HUVEC
